According to patent US20230083973A1, “SUBSTITUTED CYCLOPROPYL-2,2'-BIP[…], ANALOGUES THEREOF, AND METHODS USING SAME” (priority 2019, published 2023):
Where two headings read alike, the source gives them in different places.

Tested on: HBsAg
Test: HBsAg assay: inhibition of HBsAg in HepG2.2.15 cells (chemiluminescence immunoassay of supernatant)
Format: cell-based, hepatitis B virus
Details: HBsAg in supernatant at day 6 after exposure to compound, 0.5% DMSO
Procedure, shortened: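 Secreted HBsAg quantified by CLIA in day-6 supernatants of HepG2.2.15 cultures given compound dilutions at 0.5% final DMSO, with one compound/medium replenishment after 2–3 days. Dose-response fits gave EC50 (50% inhibition); viability checked separately by CellTiter-Glo.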

[1] = read-out: sAg EC50, HepG2.2.15 cells
[2] = Hepatitis B virus, HepG2.2.15, 144 h, read-out: sAg EC50, HepG2.2.15 cells

Row | SMILES | EC50 [1] [nM] | EC50 [2] [nM]
1 | Cc1c(C2CC2c2cnc(-c3ncccn3)nc2)ccc(Cl)c1OCC1CC1 (single isomer, unassigned) [Example 62, trans-5-(2-(4-Chloro-3-(cyclopropylmethoxy)-2-methylphenyl)cyclopropyl)-2,2′-bipyrimidine] | 49000 | –
2 | Clc1ccc(C2CC2c2cnc(-c3ncccn3)nc2)cc1N1CCCC1 (single isomer, unassigned) [Example 200, trans-5-(2-(4-Chloro-3-(pyrrolidin-1-yl)phenyl)cyclopropyl)-2,2′-bipyrimidine] | 57 | –
3 | COc1cc(F)ccc1C1CC1c1cnc(-c2ncccn2)nc1 (single isomer, unassigned) [Example 9, trans-5-(2-(4-Fluoro-2-methoxyphenyl)cyclopropyl)-2,2′-bipyrimidine] | 85 | –
4 | Fc1cc([C@@H]2C[C@H]2c2cnc(-c3ncccn3)nc2)cc(F)c1OCCCN1CCOCC1 (relative stereo) [Example 241, trans-4-(3-(4-(2-([2,2′-Bipyrimidin]-5-yl)cyclopropyl)-2,6-difluorophenoxy)propyl)morpholine] | – | 830
5 | CC(=O)N1CC[C@H](Nc2cc(C3CC3c3cnc(-c4ncccn4)nc3)cc(F)c2F)C1 (single isomer, unassigned) [Example 224] | 5000 | –
6 | COc1cc(C2CC2c2ccc(-c3ncccn3)nn2)ccc1F (single isomer, unassigned) [Example 192, trans-3-(2-(4-Fluoro-3-methoxyphenyl)cyclopropyl)-6-(pyrimidin-2-yl)pyridazine] | 49000 | –
7 | COc1cc(C2CC2c2cnc(-c3ncccn3)nc2C2CCCCC2)ccc1F (single isomer, unassigned) [Example 79, trans-4-Cyclohexyl-5-(2-(4-fluoro-3-methoxyphenyl)cyclopropyl)-2,2′-bipyrimidine] | 220 | –
8 | Fc1cc(C2CC2c2cnc(-c3ncccn3)nc2)cc(NC2CCCC2)c1F (single isomer, unassigned) [Example 207, trans-5-(2-([2,2′-Bipyrimidin]-5-yl)cyclopropyl)-N-cyclopentyl-2,3-difluoroaniline] | 750 | –
9 | CCc1cc(F)c(OC)cc1C1CC1c1cnc(-c2ncccn2)nc1 (single isomer, unassigned) [Example 35, trans-5-(2-(2-Ethyl-4-fluoro-5-methoxyphenyl)cyclopropyl)-2,2′-bipyrimidine] | – | 550
10 | COc1cc([C@@H]2C[C@H]2c2cnc(-c3ncccn3)nc2)ccc1OC(F)(F)F (relative stereo) [Example 152, trans-5-(2-(3-Methoxy-4-(trifluoromethoxy)phenyl)cyclopropyl)-2,2′-bipyrimidine] | – | 700
11 | CC(=O)N1CC[C@@H](Nc2cc(C3CC3c3cnc(-c4ncccn4)nc3)cc(F)c2F)C1 (single isomer, unassigned) [Example 227] | 270 | –
12 | COc1c(Cl)ccc(C2CC2c2cnc(-c3ncccn3)nc2)c1Cl (single isomer, unassigned) [Example 132, trans-5-(2-(2,4-Dichloro-3-methoxyphenyl)cyclopropyl)-2,2′-bipyrimidine] | – | 120
13 | COCCOc1cc(F)c(Cl)cc1C1CC1c1cnc(-c2ncccn2)nc1 (single isomer, unassigned) [Example 156, trans-5-(2-(5-Chloro-4-fluoro-2-(2-methoxyethoxy)phenyl)cyclopropyl)-2,2′-bipyrimidine] | 190 | –
14 | CCCc1cc(F)c(OC)cc1C1CC1c1cnc(-c2ncccn2)nc1 (single isomer, unassigned) [Example 38, trans-5-(2-(4-Fluoro-5-methoxy-2-propylphenyl)cyclopropyl)-2,2′-bipyrimidine] | 150 | –
15 | CN(C)C(=O)c1cc(C2CC2c2cnc(-c3ncccn3)nc2)ccc1Cl (single isomer, unassigned) [Example 203, trans-5-(2-([2,2′-Bipyrimidin]-5-yl)cyclopropyl)-2-chloro-N,N-dimethylbenzamide] | – | 6000
16 | O[C@@H]1CN(c2cc(C3CC3c3cnc(-c4ncccn4)nc3)cc(F)c2F)C[C@H]1O (relative stereo) [Example 239, trans-(3R,4R)-1-(5-(2-([2,2′-Bipyrimidin]-5-yl)cyclopropyl)-2,3-difluorophenyl)pyrrolidine-3,4-diol] | – | 110
17 | Fc1cc(C2CC2c2cnc(-c3ncccn3)nc2)cc(N2CC3(CCOCC3)C2)c1F (single isomer, unassigned) [Example 136, trans-2-(5-(2-([2,2′-Bipyrimidin]-5-yl)cyclopropyl)-2,3-difluorophenyl)-7-oxa-2-azaspiro[3.5]nonane] | 920 | –
18 | COc1cc(C2CC2c2cnc(-c3ncccn3)nc2)ccc1F (single isomer, unassigned) [Example 11, trans-5-(2-(4-Fluoro-3-methoxyphenyl)cyclopropyl)-2,2′-bipyrimidine] | 730 | –
19 | COCCCOc1cc(F)c(Cl)cc1C1CC1c1cnc(-c2ncccn2)nc1 (single isomer, unassigned) [Example 155, trans-5-(2-(5-Chloro-4-fluoro-2-(3-methoxypropoxy)phenyl)cyclopropyl)-2,2′-bipyrimidine] | 3000 | –

Row | SMILES | EC50 [1] [nM] | EC50 [2] [nM]
20 | COc1cc(C2CC2c2cnc(-c3ncccn3)nc2)c(Cl)cc1Cl (single isomer, unassigned) [Example 88, trans-5-(2-(2,4-Dichloro-5-methoxyphenyl)cyclopropyl)-2,2′-bipyrimidine] | 84 | –
21 | Fc1ccc(C2CC2c2cnc(-c3ncccn3)nc2)cc1OCC(F)F (single isomer, unassigned) [Example 28, trans-5-(2-(3-(2,2-Difluoroethoxy)-4-fluorophenyl)cyclopropyl)-2,2′-bipyrimidine] | 56 | –
22 | Fc1ccc(C2CC2c2cnc(-c3ncccn3)nc2)cc1N1CCCCC1 (single isomer, unassigned) [Example 195, trans-5-(2-(4-Fluoro-3-(piperidin-1-yl)phenyl)cyclopropyl)-2,2′-bipyrimidine] | 3000 | –
23 | CC(=O)N1CC[C@@H](Nc2cc(C3CC3c3cnc(-c4ncccn4)nc3)cc(F)c2F)C1 (single isomer, unassigned) [Example 226] | 1000 | –
24 | CO[C@H]1CCN(c2cc(C3CC3c3cnc(-c4ncccn4)nc3)cc(Cl)c2F)C1 (single isomer, unassigned) [Example 116] | 90 | –
25 | Fc1cc(C2CC2c2cnc(-c3ncccn3)nc2)cc(N2CCC3(COC3)C2)c1F (single isomer, unassigned) [Example 223, trans-6-(5-(2-([2,2′-Bipyrimidin]-5-yl)cyclopropyl)-2,3-difluorophenyl)-2-oxa-6-azaspiro[3.4]octane] | 10 | –
26 | Fc1cc([C@@H]2C[C@H]2c2cnc(-c3ncccn3)nc2)cc(-n2cccn2)c1F (single isomer, unassigned) [Example 253, trans-5-(2-(3,4-difluoro-5-(1H-pyrazol-1-yl)phenyl)cyclopropyl)-2,2′-bipyrimidine] | – | 29
27 | Fc1ccc(C2CC2c2cnc(-c3ncccn3)nc2)cc1OCC1CC1 (single isomer, unassigned) [Example 26, trans-5-(2-(3-(Cyclopropylmethoxy)-4-fluorophenyl)cyclopropyl)-2,2′-bipyrimidine] | 29 | –
28 | COc1ccc([C@@H]2C[C@H]2c2cnc(-c3ncccn3)nc2)c(F)c1 (relative stereo) [Example 1, trans-5-(2-(2-Fluoro-4-methoxyphenyl)cyclopropyl)-2,2′-bipyrimidine] | – | 200
29 | COc1c(F)ccc(C2CC2c2cnc(-c3ncccn3)nc2)c1F (single isomer, unassigned) [Example 190, trans-5-(2-(2,4-Difluoro-3-methoxyphenyl)cyclopropyl)-2,2′-bipyrimidine] | 1300 | –
30 | CO[C@H]1CCN(c2cc(C3CC3c3cnc(-c4ncccn4)nc3)cc(Cl)c2F)C1 (single isomer, unassigned) [Example 117] | 11 | –
31 | Fc1cc(C2CC2c2cnc(-c3ncccn3)nc2)cc(O[C@H]2CCOC2)c1F (single isomer, unassigned) [Example 249] | 800 | –
32 | Fc1cc(C2CC2c2cnc(-c3ncccn3)nc2)cc(OC2CCCC2)c1F (single isomer, unassigned) [Example 246, trans-5-(2-(3-(Cyclopentyloxy)-4,5-difluorophenyl)cyclopropyl)-2,2′-bipyrimidine] | 150 | –
33 | O[C@H]1CCN(c2cc(C3CC3c3cnc(-c4ncccn4)nc3)cc(Cl)c2F)C1 (single isomer, unassigned) [Example 120] | 99 | –
34 | COc1cc2ncn(-c3cc([C@@H]4C[C@H]4c4cnc(-c5ncccn5)nc4)cc(F)c3F)c2cc1OC (relative stereo) [Example 237, trans-1-(5-(2-([2,2′-Bipyrimidin]-5-yl)cyclopropyl)-2,3-difluorophenyl)-5,6-dimethoxy-1H-benzo [d]imidazole] | – | 200
35 | CCc1nc(-c2ncccn2)ncc1C1CC1c1ccc(F)c(OC)c1 (single isomer, unassigned) [Example 76, trans-4-Ethyl-5-(2-(4-fluoro-3-methoxyphenyl)cyclopropyl)-2,2′-bipyrimidine] | 2000 | –
36 | COc1cc(C2CC2c2cnc(-c3ncccn3)nc2)cc(N2CCCC2)c1F (single isomer, unassigned) [Example 100, trans-5-(2-(4-Fluoro-3-methoxy-5-(pyrrolidin-1-yl)phenyl)cyclopropyl)-2,2′-bipyrimidine] | 61 | –
37 | COc1cc(C2CC2c2cnc(-c3ncccn3)nc2)cc(C)c1Cl (single isomer, unassigned) [Example 57, trans-5-(2-(4-Chloro-3-methoxy-5-methylphenyl)cyclopropyl)-2,2′-bipyrimidine] | 63 | –
38 | Fc1ccc(C2CC2c2cnc(-c3ncccn3)nc2)cc1OC(F)(F)F (single isomer, unassigned) [Example 39, trans-5-(2-(4-Fluoro-3-(trifluoromethoxy)phenyl)cyclopropyl)-2,2′-bipyrimidine] | 2000 | –
